Source: patent US5880076A, “Compositions comprising glycacarbamate and glycaurea compounds” (Lever Brothers Company, Division of Conopco, Inc., priority 1997, dated 1999)

Assays:
[1] = Viscosity Modification of Sodium Lauryl Sulfate prototype detergent compositions; format: physicochemical; settings: for Appearance (viscosity) / Viscosity Increase: 15.0% sodium lauryl sulfate; for Viscosity Increase: 22° C.
Method: The prototype detergent compositions are as follows:
(§1) Detergent Compositions Comprising Sodium
(§2) Lauryl Sulfate and Glycacarbamate Compounds
N-Dodecyl D-Glucocarbamate
2.0-7.0% Foam Stabilizer/Thickener
(§3) 2.0% Viscosity Cobuilder
(§4) Lauryl Sulfate and Glycaurea Compounds
(§5) The above formulations were prepared by admixing the above ingredients in listed order and heating the mixture to about 80° C. with rapid stirring. The mixture was then cooled to about 40° C., placed in a clear jar and stored at room temperature.
It is well known that the viscosity of a liquid composition comprision of anionic surfactant can be modified by the addition of inorganic salts, such as sodium chloride. However, in the absence of an organic modifier, high levels of salt may be necessary to achieve the required viscosity which may lead to problems of storage at cold temperature or even salting our certain ingrediets. In practice, however, the viscosity of a liquid compositionis modified by the simultaneous addition of thickener and small amounts of inorganic salt (viscosity cobuilder). The combined effect is greater than either one alone. The viscosity of the above prototype detergent compositions comprising various amounts of glycacarbamate/urea compound are as follows: […]

[2] = Viscosity Enhancement/Foam Stabilization (Brookfield Digital Viscometer); settings: for Viscosity (Centipoise): 22° C.
[3] = Critical Micelle Concentration (micelle formation); format: physicochemical
From the text: The critical micelle concentration (CMC) is defined as the concentration at which a surfactant forms micelles in aqueous solution. […] A necessary and sufficient condition for CMC formation and surface tension reduction is the presence of both hydrophilic and hydrophobic functional groups. The hydrophilic portion provides strong interaction between the surfactant at the interface and with the surrounding water phase. The hydrophobic portion provides spontaneous adsorption of the surfactant at the interface and strong interaction with the adjacent air phase. If any of these functions are not performed, then CMC formation and surface tension reduction will not occur. For significant surface activity, a properly balanced hydrophilic and hydrophobic character is essential.

[4] = Surface Tension Reduction; format: physicochemical
From the text: An important characteristic feature that surfactants have is the tendency for them to absorb at the water/air interface in an oriented manner, thereby altering the interfacial free energy of that surface. The surface free energy per unit area or surface tension (γ), is a measure of this work and may be considered as the minimum amount of work required to bring sufficient surfactant molecules to the surface.

[5] = Water Solubility and Krafft Point (0.1% solution in water, 40° C.)
From the text: The temperature at which a surfactant forms micelles instead of precipitates is referred to as the Krafft point (Tk), and at or below this temperature the solubility of a surfactant becomes equal to its CMC (numerical value at which micelles are formed).

[6] = Clarity Enhancement of prototype detergent compositions; format: physicochemical; settings: detergent formulation
Method: The formulations were placed in a clear jar and stored for 1 month. The prototype detergent compositions are as follows:
as §1, §2
N-Coconut D-Glucocarbamate
0.5-4.0% Foam Stabilizer/Thickener
as §4, §5
For a clear detergent formulation to be successful it must have good shelf life and should not become turbid or produce sedimentation upon standing.

[7] = Flow aids: water uptake and appearance of intimate admixtures; format: physicochemical; settings: for handling and flowing characteristics (in words): intimate admixtures with ODS, SCMOS, CP-5 or CP-7; for Appearance (flow) / % H2O Uptake: 25° C., 65% R.H.; for % H2O Uptake: based on builder
From the text: It is known in the are that certain ingredients are hygroscopic in nature and liquify after exposure to moisture after a few days. […] Samples were removed periodically, weighed and returned to R. H. chamber. Percent water uptake was based on the amound of builder present. % H2 O Uptake=grams of water absorbed/grams of builder×100 Identical mixtures of ODS, SCMOS, CP-5 or CP-7 and methyl α-D-glucose-6-O-monolaurate (c12 Mgluc), dodecyl β-D-glucopyranoside (C12 Gluc), dodecyl β-D-maltoside (C12 Malt), D-glucose or D-sorbitol were also prepared and are used for comparison. When the comparative sugar surfactant of monosacchardie are used, percent water uptake was based on the amount of saccharide present. % H2 O Uptake=grams of water absorbed/grams of saccharide×100

[8] = Water solubility and turbidity in aqueous personal product and detergent compositions (statement)
[9] = Pearlescent/Suspending Action in prototype personal product compositions; format: physicochemical; settings: for Appearance (pearlescence/suspending): 15.0% sodium lauryl sulfate, room temperature, 1 month
Method: The formulations were placed in a clear jar and stored for 1 month. The prototype personal product compositions are as follows:
Personal Product Compositions Comprising Sodium
as §2
N-Tallow D-Glucocarbamate
0.5-4.0% Pearlescent/Suspending
as §3, §4, §5
For a pearlecent personal product formulation to be successful it must have good shelf life and should not separate upon standing.

O=C[C@H](O)[C@@H](O)[C@H](O)[C@H](O)CO [D-Glucose, D-glucose, reference compound]
Appearance (viscosity) ([1]; 2.0% thickener): Purable Liquid
Viscosity Increase ([1]; 2.0% thickener): No
Appearance (viscosity) ([1]; 4.0% thickener): Purable Liquid
Viscosity Increase ([1]; 4.0% thickener): No
Appearance (viscosity) ([1]; 7.0% thickener): Purable Liquid
Viscosity Increase ([1]; 7.0% thickener): No
Foam Stability ([2]; 4.0% thickener): No
Viscosity (Centipoise) ([2]; 4.0% thickener): 27 Centipoise

CCCCCCCCCCCC(=O)N(CCO)CCO [Lauramide DEA, lauric diethanolamide, reference compound]
Foam Stability ([2]; 4.0% thickener): Yes
Viscosity (Centipoise) ([2]; 4.0% thickener): 2376 Centipoise

CCCCCCCCCCN1C[C@H](O)[C@H]([C@H](O)[C@H](O)CO)OC1=O [N-Decyl D-Glucocarbamate]
CMC at 40° C. (micelle formation) ([3]; 40° C.): Yes
Surface tension reduction (γ) at 40° C. ([4]; 40° C.): Yes
H2O Solubility at 40° C. ([5]; 40° C.): Yes
Krafft point (Tk) ([5]; 40° C.): Below Tk

CCCCCCCCCCN(C[C@H](O)[C@@H](O)[C@H](O)[C@H](O)CO)C(N)=O [N-Decyl D-Glucourea]
CMC at 40° C. (micelle formation) ([3]; 40° C.): Yes
Surface tension reduction (γ) at 40° C. ([4]; 40° C.): Yes
H2O Solubility at 40° C. ([5]; 40° C.): Yes
Krafft point (Tk) ([5]; 40° C.): Below Tk

CCCCCCCCCCCCN1C[C@H](O)[C@H]([C@H](O)[C@H](O)CO)OC1=O [N-Dodecyl D-Glucocarbamate]
CMC at 40° C. (micelle formation) ([3]; 40° C.): Yes
Surface tension reduction (γ) at 40° C. ([4]; 40° C.): Yes
Appearance (viscosity) ([1]; 2.0% thickener): Slightly Viscous
Viscosity Increase ([1]; 2.0% thickener): Yes
Appearance (viscosity) ([1]; 4.0% thickener): Viscous
Viscosity Increase ([1]; 4.0% thickener): Yes
Appearance (viscosity) ([1]; 7.0% thickener): Very Viscous
Viscosity Increase ([1]; 7.0% thickener): Yes
viscosity increase (in words) ([1]; compared with D-glucose): increases the viscosity of that composition more effectively than D-glucose
clarity (in words) [6]: clear without sedimentation
handling and flowing characteristics (in words) [7]: improved the handling and flowing characteristics
H2O Solubility at 40° C. ([5]; 40° C.): Yes
Krafft point (Tk) ([5]; 40° C.): Below Tk
Foam Stability ([2]; 4.0% thickener): Yes
viscosity increase from normal viscosity ([2]; 4.0% thickener): 99-104 times
Viscosity (Centipoise) ([2]; 4.0% thickener): 2176 Centipoise
Foam Stability ([2]; 4.0% thickener, listed as N-dodecyl D-glucocarbamate): stabilize foam
viscosity enhancement and foam stabilization (comparison in words) ([2]; compared with lauramide DEA, cocoamide MEA, Neodol 91-6 and D-glucose): enhance viscosity and stabilze foam compartively to lauramide diethanolamine (DEA), but better than cocoamide menoethanolamine (MEA), Neodol 91-6 (C9 -C11 alcohol ethoxylate with 6 moles of ethylene oxide) and D-glucose

CCCCCCCCCCCCN1C[C@H](O)[C@H]([C@H](O[C@H]2O[C@H](CO)[C@@H](O)[C@H](O)[C@H]2O)[C@H](O)CO)OC1=O [N-Dodecyl D-Maltocarbamate]
CMC at 40° C. (micelle formation) ([3]; 40° C.): Yes
Surface tension reduction (γ) at 40° C. ([4]; 40° C.): Yes
H2O Solubility at 40° C. ([5]; 40° C.): Yes
Krafft point (Tk) ([5]; 40° C.): Below Tk
water solubility ([8]; compared to other known glycacarbamate and glycaurea compounds): enhanced water solubility
turbidity ([8]; in aqueous personal product and detergent compositions): less turbid

CCCCCCCCCCCCCCCCN1C[C@H](O)[C@H]([C@H](O)[C@H](O)CO)OC1=O [N-Hexadecyl D-Glucocarbamate]
CMC at 40° C. (micelle formation) ([3]; 40° C.): No
CMC at 40° C. (micelle formation) ([3]; 40° C., listed as E): do not form micelles
Surface tension reduction (γ) at 40° C. ([4]; 40° C.): No
Surface tension reduction (γ) at 40° C. ([4]; 40° C., listed as E): do not significantly reduce the surface tension of water
H2O Solubility at 40° C. ([5]; 40° C.): No
Krafft point (Tk) ([5]; 40° C.): Above Tk
H2O Solubility at 40° C. ([5]; 40° C., listed as E): insoluble in water

CCCCCCCCCCCCCCCCN(C[C@H](O)[C@@H](O)[C@H](O)[C@H](O)CO)C(N)=O [N-Hexadecyl D-Glucourea]
CMC at 40° C. (micelle formation) ([3]; 40° C.): No
Surface tension reduction (γ) at 40° C. ([4]; 40° C.): No
Appearance (pearlescence/suspending) ([9]; 0.5% opacifier): Pearlescent/Suspending Action
Appearance (pearlescence/suspending) ([9]; 1.0% opacifier): Pearlescent/Suspending Action
Appearance (pearlescence/suspending) ([9]; 2.0% opacifier): Pearlescent/Suspending Action
Appearance (pearlescence/suspending) ([9]; 3.0% opacifier): Pearlescent/Suspending Action
Appearance (pearlescence/suspending) ([9]; 4.0% opacifier): Pearlescent/Suspending Action
pearlescence (in words) ([9]; sodium lauryl sulfate compositions): excellent pearlescence
handling and flowing characteristics (in words) [7]: improved the handling and flowing characteristics
H2O Solubility at 40° C. ([5]; 40° C.): No
Krafft point (Tk) ([5]; 40° C.): Above Tk

CCCCCCCCCCCCCCCCCCN1C[C@H](O)[C@H]([C@H](O)[C@H](O)CO)OC1=O [N-Octadecyl D-Glucocarbamate]
CMC at 40° C. (micelle formation) ([3]; 40° C.): No
CMC at 40° C. (micelle formation) ([3]; 40° C., listed as F): do not form micelles
Surface tension reduction (γ) at 40° C. ([4]; 40° C.): No
Surface tension reduction (γ) at 40° C. ([4]; 40° C., listed as F): do not significantly reduce the surface tension of water
H2O Solubility at 40° C. ([5]; 40° C.): No
Krafft point (Tk) ([5]; 40° C.): Above Tk
H2O Solubility at 40° C. ([5]; 40° C., listed as F): insoluble in water

CCCCCCCCN1C[C@H](O)[C@H]([C@H](O)[C@H](O)CO)OC1=O [N-Octyl D-Glucocarbamate]
CMC at 40° C. (micelle formation) ([3]; 40° C.): Yes
Surface tension reduction (γ) at 40° C. ([4]; 40° C.): Yes
H2O Solubility at 40° C. ([5]; 40° C.): Yes
Krafft point (Tk) ([5]; 40° C.): Below Tk

CCCCCCCCCCCCCCN1C[C@H](O)[C@H]([C@H](O)[C@H](O)CO)OC1=O [N-Tetradecyl D-Glucocarbamate]
CMC at 40° C. (micelle formation) ([3]; with slight heating): Yes
Surface tension reduction (γ) at 40° C. ([4]; with slight heating): Yes
handling and flowing characteristics (in words) [7]: improved the handling and flowing characteristics
H2O Solubility at 40° C. ([5]; with slight heating): Yes
Krafft point (Tk) ([5]; with slight heating): Below Tk

O=C([O-])CC(OC(CC(=O)[O-])C(=O)[O-])C(=O)[O-].[Na+].[Na+].[Na+].[Na+] (centres unmarked) [Na4 ODS, tetrasodium oxydisuccinate, reference compound]
Appearance (flow) ([7]; 4 days): Liquid
% H2O Uptake ([7]; 4 days): 59%

tetrasodium sulfocarboxymethyloxysuccinate [Na4 SCMOS, reference compound]
Appearance (flow) ([7]; 9 days): Sticky Paste
% H2O Uptake ([7]; 9 days): 38%
